Experiment: pKa value was determined
Type: physicochemical

pKa: 6.8
Structure (SMILES): COC(=O)C(Cc1ccc(O)cc1)NC(=O)CN(CCN(CC(=O)O)CC(=O)NC(Cc1ccc(O)cc1)C(=O)OC)CC(=O)O (stereo unspecified)

Source: ChEMBL document CHEMBL1136388, “EDTA bis-(methyl tyrosinate): a chelating peptoid peroxynitrite scavenger” (Bioorg Med Chem Lett, 2003)
